{
  "source": "patent US11963996B2",
  "about": "“Method of treating knee pain” (ORTHOTROPHIX, Inc., priority 2018, dated 2024)",
  "key": {"[1]": {"tested_on": "subjects with bilateral patello-femoral knee osteoarthritis", "assay": "Same study: safety and tolerability", "type": "in vivo, human", "description": "The study was divided into Part A and Part B. The Part A was designed to evaluate safety of intra-articular (I.A.) administration of TPX-100 at different dosing levels (20, 50, 100, or 200 mg per injection in sequential cohorts) in the subjects with osteoarthritis of the knees and to select a dose for Part B. Part B was to evaluate safety and efficacy of the selected dose of TPX-100.\nSubjects in Part A were enrolled in sequential cohorts and randomized to receive 20, 50, 100 or 200 mg of TPX-100 in one knee (Index Knee) and identical placebo in the contralateral (Control) knee. Subjects, sites and sponsor and central MRI readers were blinded as to treatment assignment. A Safety Review Committee (SRC) evaluated safety in each dosing cohort. The SRC assessed safety and determined whether the next higher dosing regimen could be enrolled. All dosing cohorts in Part A were completed and analyzed with regard to safety prior to dose selection and initiation of Part B.\nOn the first dosing day, the randomized subjects were assessed by physical examinations and vital signs. Further, they completed the Knee injury and Osteoarthritis Outcome Score (KOOS), which includes the Western Ontario and McMaster Universities Osteoarthritis Index (WOMAC). The KOOS questionnaire assesses knee-specific activities of daily living, sports and recreation, knee-related quality of life, other symptoms such as stiffness, and knee pain. The KOOS has been used extensively in longitudinal studies of knee osteoarthritis. After assessments were completed, subjects received one intra-articular injection in each knee, with each injection prepared from the vial(s) marked for that knee. One knee received TPX-100, and the contralateral knee received placebo with subject, site, and sponsor blinded to treatment assignment. Subjects were monitored for adverse events during the injections and for a few hours after the injections. Vital signs were also monitored after the injections.\nOn the 7th, 14th, and 21st days after the first dosing, subjects received the second, third, and fourth (last) dosing of the same study materials, respectively. Safety and adverse event assessments were obtained as on the first dosing day.\nSubjects returned to their respective study sites at 3, 6 and 12 months after the first dosing day for follow-up evaluations. In addition, the study sites monitored the subject's condition through telephone contact 9 months after the first dosing day. During the 3, 6, and 12 months post-treatment, subjects were evaluated on site with physical examinations, vital signs, serum chemistries, as well as completing patient-reported outcomes including the KOOS. Adverse events and concomitant medications were recorded. MRIs of both knees were obtained during the 6 and 12-month visits."}, "[2]": {"tested_on": "subjects with bilateral patello-femoral knee osteoarthritis", "assay": "Example 2: re-analysis of the study with stricter MRI image qualification (79 subjects)", "type": "in vivo, human", "description": "After the data analyses in EXAMPLE 1, a few more MRI images were questioned with regard to their technical quality to enable assessment of periarticular bone shape change over time. In order to assure the quality of the overall analysis results, a stricter qualification standard was applied to the MRI images used in EXAMPLE 1, and requalification was performed. Seventy-nine (79) subjects were requalified. The MRI knee images of these subjects were re-analyzed for their periarticular bone shape changes, as well as their correlations with the changes of tibiofemoral cartilage thickness and pain, respectively, in the same manner as described in EXAMPLE 1.\nThe requalified 79 subjects were included in the efficacy analysis per the Statistical Analysis Plan."}, "healthy volunteers": {"tested_on": "healthy volunteers", "assay": "GLP toxicology studies and Phase 1 clinical study with healthy volunteers", "settings": "human, in vivo", "source_text": "In non-clinical safety and efficacy studies, TPX-100 was first tested for its bone formation activity."}, "defects in human molar": {"tested_on": "defects in human molar", "assay": "Phase 2 study of dentin formation in defects in human molar", "type": "in vivo", "settings": "both Phase 2 studies", "description": "Based on these safety and bone and dentin formation data, TPX-100 was tested in two Phase 2 studies for alveolar bone and dentin formation activities, respectively."}, "[3]": {"tested_on": "cultured neonatal mouse calvaria", "settings": "cited from earlier work"}, "rat long bone fracture": {"tested_on": "rat long bone fracture", "settings": "cited from earlier work"}, "rat dental defect": {"tested_on": "rat dental defect", "settings": "in vivo; cited from earlier work"}, "[4]": {"tested_on": "full-thickness chondral defect", "settings": "in vivo; cited from earlier work"}, "[5]": {"settings": "Example 2, 79 requalified subjects, Index vs Control knees, 6 or 12 month, or both"}, "[6]": {"settings": "Example 2, Index vs Control Knees, 12 months"}},
  "data": [
    {"substance": "TPX-100: synthetic peptide consisting of 23 amino acids, TDLQERGDNDISPFSGDGQPFKD, derived from human Matrix Extracellular Phosphoglycoprotein (MEPE)", "values": [
      {"measurement": "Safety and tolerability", "setting": "[1]; 200 mg per dose, 4 once-weekly intra-articular injections", "result": "safe and well tolerated"},
      {"measurement": "Dose-limiting toxicities", "setting": "[1]; Part A, 20, 50, 100 and 200 mg per injection", "result": "no dose-limiting toxicities"},
      {"measurement": "Severe adverse events related to treatment", "setting": "[1]; in vivo", "result": "no severe adverse events that were related to TPX-100 treatment"},
      {"measurement": "Severity of treatment-related adverse events", "setting": "[1]; in vivo", "result": "mild or moderate, transient"},
      {"measurement": "KOOS ADL improvement", "setting": "[2]; [5]", "result": "clinically meaningful and statistically significant (p<0.05) improvements"},
      {"measurement": "KOOS Knee-related QOL improvement", "setting": "[2]; [5]", "result": "clinically meaningful and statistically significant (p<0.05) improvements"},
      {"measurement": "WOMAC Function improvement", "setting": "[2]; [5]", "result": "clinically meaningful and statistically significant (p<0.05) improvements"},
      {"measurement": "3D periarticular femur bone shape change (bone shape score)", "setting": "[2]; Example 2, Index vs Control Knees, 6 and 12 months", "result": "statistically significant (p<0.05) delay of femur bone shape change"},
      {"measurement": "KOOS Pain subscale improvement", "setting": "[2]; [6]", "result": "clinically meaningful improvement in Index Knees with a trend towards statistical significance (p<0.09)"},
      {"measurement": "Pain bending knee fully (KOOS Pain question)", "setting": "[2]; [6]", "result": "significantly improved (p<0.05)"},
      {"measurement": "Pain frequency (KOOS Pain question)", "setting": "[2]; [6]", "result": "significantly improved (p<0.05)"},
      {"measurement": "Pain going up or down stairs (KOOS Pain question)", "setting": "[2]; [6]", "result": "significantly improved (p<0.05)"},
      {"measurement": "3D bone shape change in patella in pain frequency responders", "setting": "[2]; Example 2, responders", "result": "eventually no change in the 3D bone shape in patella"},
      {"measurement": "Pain frequency in responders, baseline to 12 months", "setting": "[2]; Example 2, responders to TPX-100", "result": "decreased from daily pain at baseline to semi-monthly pain at 12 months"},
      {"measurement": "Safety in GLP toxicology studies and Phase 1 study", "setting": "healthy volunteers", "result": "Safety of the TPX-100 peptide was further confirmed"},
      {"measurement": "Tolerability in two Phase 2 studies (alveolar bone, dentin)", "setting": "defects in human molar", "result": "well tolerated in both studies"},
      {"measurement": "Bone formation activity in calvaria culture", "setting": "[3]", "result": "thickening of cultured neonatal mouse calvaria"},
      {"measurement": "Tolerability in in vivo bone formation and dentin formation studies", "setting": "rat long bone fracture; rat bone formation and dentin formation studies", "result": "well tolerated"},
      {"measurement": "Bone fracture healing", "setting": "rat long bone fracture; subcutaneous injection", "result": "acceleration of bone fracture healing"},
      {"measurement": "Dentin formation", "setting": "rat dental defect", "result": "promote dentin formation"},
      {"measurement": "Safety and tolerability in goats", "setting": "[4]", "result": "safe and well-tolerated"}
    ]}
  ]
}
